# Key:
# [1] = test system: Lymph node (LN) cells from unprimed DO11.10 TCR Tg mice; assay: OVA-stimulated lymph node cell culture, T cell proliferation; type: cell-based; settings: for proliferation of the T cells that respond to the antigen: LN cells stimulated with OVA, vs control RPMI, FIG. 1; for effect on T cell responses in general: overall conclusion of Example 1 (FIGS. 1-4)
# [2] = test system: naïve CD4+ T cells; assay: Naive CD4+ T cells under Treg cell generating conditions; type: cell-based; settings: for proliferation: Treg cell generating conditions, 5 days, FIG. 39; for number of Foxp3+ Treg cells: rIL-2, with or even without rTGF-β1, 5 days, FIG. 38
# [3] = test system: Naive CD4+ T cells; assay: Naive CD4+ T cells under Th17 cell polarizing conditions; type: cell-based; settings: for number of CD4+ IL-10-secreting T cells: among Th17 differentiating cells, 4 days, FIG. 37; for number of CD4+ IL-17-secreting T cells: and rIL-6, 4 days, vs RPMI, FIG. 36
# [4] = test system: EAE in C57BL/6 Rag−/− recipients; assay: Adoptive transfer of CD4+ T cells from treated EAE donors into C57BL/6 Rag-/- recipients; type: in vivo, C57BL/6 Rag−/− mice
# [5] = test system: ongoing EAE in recipient mice; assay: Adoptive transfer of DLN cells from treated EAE donors into recipients with ongoing EAE; type: in vivo
# Description: The donor DLN cells were obtained on day 17, which is the peak of disease for control mice. This protection was observed until day 28-30 when the mice were euthanized.
# [6] = test system: EAE; assay: EAE after cessation of 15 days of treatment, 45 additional days of monitoring; type: in vivo, C57BL/6 mice
# Description: The mice continued to be monitored daily for clinical signs of EAE for 45 additional days thereafter.
# [7] = test system: response to OVA in EAE-induced mice; assay: EAE mice treated for 15 days, then immunized with OVA/CFA; type: in vivo, C57BL/6 mice
# Description: Treatment stopped and mice were then injected with OVA/CFA (Complete Freund's Adjuvant).
# Instead, the response to a new antigen that the mice are exposed to is enhanced.
# [8] = test system: ongoing EAE in recipient mice; assay: Adoptive transfer of CD4+ T cells from treated EAE donors into recipients with ongoing EAE; type: in vivo
# [9] = test system: collagen-induced arthritis (CIA); settings: cited from earlier work
# [10] = mice; cited from earlier work
# [11] = mitogen-induced proliferation, delayed-type hypersensitivity, mixed lymphocyte reaction; cited from earlier work
# [12] = oral, 50 mg/kg, beginning at onset of disease
compound,measurement,setting,value
"C[C@]12CC[C@H](O)CC1=CC[C@@H]1[C@@H]2CC[C@@]2(C)[C@H]1CC[C@@]21CO1 [BNN-50, 17β-spiro-[5-androsten-17,2′-oxiran]-3β-ol]",proliferation of the T cells that respond to the antigen,[1],significantly decreased
same,effect on T cell responses in general,[1],immunosuppressive effect
same,proliferation,[2],increased
same,number of Foxp3+ Treg cells,[2],significant increase
same,number of CD4+ IL-10-secreting T cells,[3],significant increase
same,number of CD4+ IL-17-secreting T cells,[3],increase
"C[C@]12CC[C@H](O)CC1=CC[C@@H]1[C@@H]2CC[C@@]2(C)[C@H]1CC[C@@]21OC1CO (stereo partly drawn) [BNN-93, 3β,21-dihydroxy-17α,20-epoxy-5-pregnene]",proliferation of the T cells that respond to the antigen,[1],significantly decreased
same,effect on T cell responses in general,[1],immunosuppressive effect
same,ex vivo proliferation to MOG35-55,"[4]; DLN cells of Rag−/− recipients, FIG. 33a",substantially decreased
same,production of IFN-γ,"[4]; DLN cells of Rag−/− recipients, FIG. 33b",decreased production
same,production of IL-17,"[4]; DLN cells of Rag−/− recipients, FIG. 33c",decreased production
same,EAE scores induced in recipients,"[4]; after pertussis toxin injections, FIGS. 31 and 32",no disease
same,recovery of recipients,"[5]; DLN cell transfer, vs PBS-treated donors, FIG. 24",rapid recovery
same,mean maximum disease score,"[5]; DLN cell transfer, vs PBS-treated donors, FIG. 25",significant reduction
same,EAE development in recipients,"[5]; DLN cells of donors treated days 12-17, vs DLN cells from PBS-treated donors, FIG. 24",confer suppression
same,ex vivo proliferation to MOG35-55,"[5]; DLN cells of recipients, FIG. 26a",significantly decreased
same,levels of supernatant IFN-γ,"[5]; DLN cells of recipients, FIG. 26b",decreased levels
same,levels of supernatant IL-17,"[5]; DLN cells of recipients, FIG. 26c",decreased levels
same,recruitment of CD11c+ dendritic cells,"[5]; draining lymph nodes of recipients, FIG. 27a",substantially decreased
same,recruitment of IL-17 secreting T cells,"[5]; draining lymph nodes of recipients, FIG. 27b",substantially decreased
same,recruitment of CD4+ Foxp3+ regulatory T cells,"[5]; draining lymph nodes of recipients, FIG. 27c",increased
same,protection from EAE development after cessation of treatment,"[6]; treated 15 days from around day 13, monitored 45 additional days, FIGS. 34 and 35",remained protected
same,disease score after cessation of treatment,"[6]; treated 15 days, monitored 45 additional days, vs control mice",remained unchanged
same,production of IFN-γ,[7]; after OVA/CFA immunization,increased
same,T cell response to OVA ex vivo (3H-Thymidine incorporation),"[7]; after OVA/CFA immunization, FIG. 40",substantially increased
same,EAE phenotype after end of treatment and OVA/CFA injection,[7]; in comparison to control mice,stable phenotype without any deterioration
same,protection from EAE,"[7]; treated 15 days from shortly after disease onset, then OVA/CFA",clearly protected
same,mean maximum EAE score,"[8]; CD4+ T cell transfer into recipients with ongoing EAE, FIGS. 28 and 29",significant decrease
same,proliferation to MOG35-55 ex vivo,"[8]; DLN cells and splenocytes of recipients, FIG. 30",significantly decreased
same,proliferation,[2],increased
same,number of Foxp3+ Treg cells,[2],significant increase
same,number of CD4+ IL-10-secreting T cells,[3],significant increase
same,number of CD4+ IL-17-secreting T cells,[3],increase
"C[C@]12CC[C@H](O)CC1=CCC1C2CC[C@@]2(C)C1CC[C@]21O[C@H]1CO (stereo partly drawn) [BNN-124, (20S)-3β,21-dihydroxy-17β,20-epoxy-5-pregnene]",proliferation of the T cells that respond to the antigen,[1],significantly decreased
same,effect on T cell responses in general,[1],immunosuppressive effect
same,proliferation,[2],increased
same,number of Foxp3+ Treg cells,[2],significant increase
same,number of CD4+ IL-10-secreting T cells,[3],significant increase
same,number of CD4+ IL-17-secreting T cells,[3],increase
C#C[C@]1(O)CC[C@H]2[C@@H]3[C@@H](O)C=C4C[C@@H](O)CC[C@]4(C)[C@H]3CC[C@@]21C [HE3286],numbers and function of CD4+CD25+FOXp3+CD127-regulatory T cells (T reg),[9]; associated with benefit,increases
same,CIA peak scores,[9]; [12],significantly decreased
same,daily severity of arthritis scores,[9]; [12],significantly decreased
same,oral bioavailability,[10],up to 25%
same,immune suppression in classical models,[11],not found to be immune suppressive
